Legend:
[1] = Second order kinetic constants of the reactions between CC49-TCO constructs and ^177Lu-28; format: physicochemical; details: for Second order kinetic constant: new TCOs conjugated to CC49, reaction with ^177Lu-28, procedures of Example 5; for Second order kinetic constant, No Spacer / Second order kinetic constant, PEG10 Spacer: TCO conjugated to CC49, reaction with ^177Lu-28 in PBS, pH 7.4 at 37° C.
Description: Typically, 1 mg CC49 (5 mg/mL solution in PBS) was modified with 0.6 molar (for kinetic measurements) or 10 molar eq. (for in vivo studies) of TCO-NHS constructs in a total volume of 250 μL PBS. The pH was adjusted to 9 with 1 M sodium carbonate buffer. The reactions were carried out under agitation for 30 min at RT in the dark. Subsequently, the TCO-modified mAbs were extensively washed with PBS using Amicon Ultra-15 centrifugal devices. The numbers of TCO groups per antibody were determined with a tetrazine titration, outlined below.
Tetrazine-DOTA 28 was radiolabeled with carrier-added ^177Lu. mAb (25 μg) modified with ca. 0.6 molar eq. TCO was reacted with 3 molar eq. of ^177Lu-28 (0.5 nM). mAb (25 μg) modified with ca. 10 molar eq. TCO was reacted with 15 molar eq. of ^177Lu-28 (2.5 nM). The reactions were carried out in 50 μL PBS pH 7.4 at 37° C. for 10 min. The reaction mixtures were analyzed by SDS-PAGE and phosphor imager and the reaction yields were determined from the radioactivity in the bands corresponding to the mAb. The counts were quantified with AIDA Image Analyzer software (Raytest).
Tetrazine-DOTA 28 was radiolabeled with carrier-added ^177Lu at a specific activity of 3 MBq/μg. ^177Lu-28 (33 nM) was reacted with increasing concentrations of CC49 modified with 1 eq. of TCO (0.33, 1, and 1.67 μM) in 200 μL PBS, pH 7.4 at 37° C. for 5 min. At selected times (15, 30, 45, 60, 90, 120, 180, and 300 sec) a 20 μL sample was withdrawn and quenched with tetrazine 6 (FIG. 5; described in Rossin et al. Angew Chem Int Ed 2010, 49, 3375) (1.5 μL, 5 mg/mL in DMF). Aliquots of each mixture were analyzed by SDS-PAGE and phosphor imager and the cycloaddition yields were determined from the radioactivity in the bands corresponding to the mAb. The counts were quantified with AIDA Image Analyzer software (Raytest).
The newly synthesized TCO constructs were evaluated with respect to their reactivity towards tetrazine 28. The procedures are described in Example 5.

[2] = tested on: LS174T tumor model; assay: Biodistribution experiments in tumor bearing mice pretargeted with CC49-TCO constructs; format: in vivo, Nude female Balb/C mice; details: for ^177Lu-tetrazine in Blood / ^177Lu-tetrazine in Bone / ^177Lu-tetrazine in Brain / ^177Lu-tetrazine in Heart / ^177Lu-tetrazine in Kidney / ^177Lu-tetrazine in Liver / ^177Lu-tetrazine in Lung / ^177Lu-tetrazine in Muscle / ^177Lu-tetrazine in Spleen / ^177Lu-tetrazine in Tumor: 3 h after injection
Description: (§1) LS174T tumor model. The human colon cancer cell line LS174T was obtained from the ATCC and maintained in Eagle's minimal essential medium (Sigma) supplemented with 10% heat inactivated fetal calf serum (Gibco), penicillin (100 U/mL), streptomycin (100 μg/mL) and 2 mM Glutamax. Nude female Balb/C mice (20-25 g body weight, Charles River Laboratories) were inoculated subcutaneously with 5×10^6 cells in 100 μL sterile PBS.
Dual isotope biodistribution experiments were performed by injecting tumor bearing mice (n=3) intravenously with ^125I-labeled CC49-TCO constructs with and without PEG10 spacer (100 μg/100 μL per mouse, ca. […] 0.8 MBq). Three hours after tetrazine administration, the animals were anesthetized with isoflurane and sacrificed by cervical dislocation. Blood was withdrawn by heart puncture and organs and tissues of interest were harvested, blotted dry and weighed. The radioactivity of the samples was measured in a γ-counter along with standards to determine the % ID/gram. The energy windows were set to 10-80 keV and 100-510 keV for ^125I and ^111In, respectively.

[3] = tested on: LS174T tumor model; assay: Biodistribution of ^177Lu-tetrazine 28 in tumor bearing mice pretargeted with CC49-TCO 44b; format: in vivo, Nude female Balb/C mice; details: 3 h after injection, 50 h after ^125I-CC49-TCO-44b, two doses of clearing agent
Description: as §1
Tumor-bearing mice (see Methods; 100 mm^3 tumor size; n=4) were injected with ^125I-CC49 functionalized with 7.5 TCO 44b groups (100 μg/mouse, ca. 0.2 MBq). Thirty and 48 hours post-mAb injection the mice received one dose of clearing agent (galactose-MSA-tetrazine, 160 μg/dose) followed 2 h later by ^177Lu-tetrazine 28 (10 eq. with respect to the mAb, ca. 0.5 MBq). Three hours post-tetrazine injection the mice were anesthetized and sacrificed by cervical dislocation, blood was withdrawn by heart puncture, organs and tissues of interest were harvested and blotted dry. All collected samples were weighed and added with 1 mL PBS. The sample radioactivity was measured in a gamma-counter with a dual-isotope protocol (10-80 keV window for ^125I and 155-380 keV window for ^177Lu) along with standards to determine the percent injected dose per gram tissue (% ID/g).

[4] = 1 day pretargeting with CC49-23a
[5] = 4 days pretargeting with CC49-23a

Structure (SMILES): O=C(ON1C(=O)CCC1=O)c1ccc(OC2CC/C=C/CCC2)cc1 (single isomer, unassigned) [52b, (E-Minor)-2,5-dioxopyrrolidin-1-yl 4-(cyclooct-4-en-1-yloxy)benzoate]
- Second order kinetic constant [1]: 333300 ± 625 M⁻¹ s⁻¹

Structure (SMILES): O=C(Nc1ccc(C(=O)ON2C(=O)CCC2=O)cc1)OC1CC/C=C/CCC1 (stereo not shown) [14a, (E-major)-2,5-dioxopyrrolidin-1-yl 4-(((cyclooct-4-en-1-yloxy)carbonyl)amino)benzoate]
- Second order kinetic constant, No Spacer [1]: (14a) 11350 ± 550 M^−1s^−1

Structure (SMILES): O=C(Nc1ccc(C(=O)ON2C(=O)CCC2=O)cc1)OC1CC/C=C/CCC1 (stereo not shown) [14b, (E-minor)-2,5-dioxopyrrolidin-1-yl 4-(((cyclooct-4-en-1-yloxy)carbonyl)amino)benzoate]
- Second order kinetic constant, No Spacer [1]: (14b) 66550 ± 8800 M^−1s^−1

Structure (SMILES): O=C(CCOCCOCCOCCOCCOCCOCCOCCOCCOCCOCCOCCOCCNC(=O)c1ccc(COC2CC/C=C/CCC2)cc1)ON1C(=O)CCC1=O (stereo not shown) [23b, (E-minor)-2,5-Dioxopyrrolidin-1-yl 1-(4-((cyclooct-4-en-1-yloxy)methyl)phenyl)-1-oxo-5,8,11,14,17,20,23,26,29,32,35,38-dodecaoxa-2-azahentetracontan-41-oate]
- Second order kinetic constant, PEG10 Spacer [1]: (23b) 156400 ± 3100 M^−1s^−1

Structure (SMILES): O=C(CCOCCOCCOCCOCCOCCOCCOCCOCCOCCOCCOCCOCCNC(=O)c1ccc(NC(=O)OC2CC/C=C/CCC2)cc1)ON1C(=O)CCC1=O (stereo not shown) [27a, (E-major)-2,5-dioxopyrrolidin-1-yl 1-(4-(((cyclooct-4-en-1-yloxy)carbonyl)amino)phenyl)-1-oxo-5,8,11,14,17,20,23,26,29,32,35,38-dodecaoxa-2-azahentetracontan-41-oate]
- Second order kinetic constant, PEG10 Spacer [1]: (27a) 11030 ± 250 M^−1s^−1

Structure (SMILES): O=C([O-])CN1CCN(CC(=O)[O-])CCN(CC(=O)NCCOCCOCCOCCOCCOCCOCCOCCOCCOCCOCCOCCNC(=O)CCCC(=O)Nc2ccc(-c3nnc(-c4ccccn4)nn3)nc2)CCN(CC(=O)[O-])CC1.[177Lu+3] [^177Lu-tetrazine 28]
- ^177Lu-tetrazine in Blood [2, 4]: 1.06 ± 0.34 % ID/gram
- ^177Lu-tetrazine in Bone [2, 4]: 0.11 ± 0.02 % ID/gram
- ^177Lu-tetrazine in Brain [2, 4]: 0.03 ± 0.02 % ID/gram
- ^177Lu-tetrazine in Heart [2, 4]: 0.20 ± 0.02 % ID/gram
- ^177Lu-tetrazine in Kidney [2, 4]: 1.73 ± 0.31 % ID/gram
- ^177Lu-tetrazine in Liver [2, 4]: 0.61 ± 0.15 % ID/gram
- ^177Lu-tetrazine in Lung [2, 4]: 0.32 ± 0.03 % ID/gram
- ^177Lu-tetrazine in Muscle [2, 4]: 0.06 ± 0.03 % ID/gram
- ^177Lu-tetrazine in Spleen [2, 4]: 0.30 ± 0.09 % ID/gram
- ^177Lu-tetrazine in Tumor [2, 4]: 3.09 ± 0.01 % ID/gram
- ^177Lu-tetrazine in Tumor ([2]; 1 day pretargeting with CC49-23a, listed as 177Lu-tetrazine): 3.09±0.01 % ID/gram
- ^177Lu-tetrazine in Blood [2, 5]: 0.04 ± 0.01 % ID/gram
- ^177Lu-tetrazine in Bone [2, 5]: 0.06 ± 0.01 % ID/gram
- ^177Lu-tetrazine in Brain [2, 5]: 0.01 ± 0.00 % ID/gram
- ^177Lu-tetrazine in Heart [2, 5]: 0.04 ± 0.00 % ID/gram
- ^177Lu-tetrazine in Kidney [2, 5]: 1.73 ± 0.22 % ID/gram
- ^177Lu-tetrazine in Liver [2, 5]: 0.31 ± 0.03 % ID/gram
- ^177Lu-tetrazine in Lung [2, 5]: 0.13 ± 0.05 % ID/gram
- ^177Lu-tetrazine in Muscle [2, 5]: 0.02 ± 0.01 % ID/gram
- ^177Lu-tetrazine in Spleen [2, 5]: 0.20 ± 0.00 % ID/gram
- ^177Lu-tetrazine in Tumor [2, 5]: 0.86 ± 0.39 % ID/gram
- ^177Lu-tetrazine in Tumor ([2]; 4 days pretargeting with CC49-23a, listed as 177Lu-tetrazine): 0.86±0.39 % ID/gram
- tumor-to-blood ratio (T/B) ([2]; ^177Lu-tetrazine administered 4 days after the mAb CC49-23a): 21.3±4.0
- tumor-to-blood ratio (T/B) ([2]; ^177Lu-tetrazine, mice pre-treated with CC49-23a 24 h before injection of the tetrazine): 3.1±1.0
- Tumor/Blood ratio, ^177Lu-tetrazine [3]: 304 ± 80
- Tumor/Bone ratio, ^177Lu-tetrazine [3]: 142 ± 59
- Tumor/Brain ratio, ^177Lu-tetrazine [3]: 1674 ± 243
- Tumor/Heart ratio, ^177Lu-tetrazine [3]: 187 ± 20
- Tumor/Kidney ratio, ^177Lu-tetrazine [3]: 6 ± 2
- Tumor/Liver ratio, ^177Lu-tetrazine [3]: 50 ± 10
- Tumor/Lung ratio, ^177Lu-tetrazine [3]: 39 ± 8
- Tumor/Muscle ratio, ^177Lu-tetrazine [3]: 328 ± 96
- Tumor/Spleen ratio, ^177Lu-tetrazine [3]: 108 ± 22
- ^177Lu-tetrazine in Blood [3]: 0.03 ± 0.00 % ID/gram
- ^177Lu-tetrazine in Bone [3]: 0.08 ± 0.04 % ID/gram
- ^177Lu-tetrazine in Brain [3]: 0.01 ± 0.00 % ID/gram
- ^177Lu-tetrazine in Heart [3]: 0.05 ± 0.01 % ID/gram
- ^177Lu-tetrazine in Kidney [3]: 1.50 ± 0.24 % ID/gram
- ^177Lu-tetrazine in Liver [3]: 0.19 ± 0.02 % ID/gram
- ^177Lu-tetrazine in Lung [3]: 0.24 ± 0.02 % ID/gram
- ^177Lu-tetrazine in Muscle [3]: 0.03 ± 0.00 % ID/gram
- ^177Lu-tetrazine in Spleen [3]: 0.09 ± 0.01 % ID/gram
- ^177Lu-tetrazine in Tumor [3]: 9.25 ± 2.16 % ID/gram

Structure (SMILES): CC1(CC(=O)ON2C(=O)CCC2=O)CC/C=C/CCC1 (stereo not shown) [compound 58, (E-Major,minor)-2,5-Dioxopyrrolidin-1-yl 2-(1-methylcyclooct-4-en-1-yl)acetate]
- Second order kinetic constant [1]: 323500 ± 43320 M⁻¹ s⁻¹
